Test results published in patent US20070149480A1 (Alcon, Inc., priority 2005, published 2007).
Values after ≈ are worked out from the molar mass of the structure shown.

Legend:
[1] = Solubility of RTKi in phosphate buffer vehicle containing sulfobutylether beta cyclodextrin (SBCD); assay type: physicochemical; settings: for solubility: RTKi Solubility
Description: (§1) The present inventors have discovered that use of cyclodextrin derivatives to solubilize highly insoluble anti-angiogenic active compounds provides an efficacious ophthalmic formulation. […] Prototype intravitreal vehicle is shown in Example 1, and intravitreal and PJ formulations of the active compound containing HPCD are provided in Examples 2 and 3, respectively.

[2] = Solubility of RTKi in phosphate buffer vehicle containing hydroxypropyl cyclodextrin (HPCD); assay type: physicochemical; settings: for solubility enhancement: 10% HPCD in phosphate buffer vs phosphate buffer alone; for solubility: RTKi Solubility
Description: as §1
Solubility of RTKi in phosphate buffer vehicle containing various amount of hydroxypropyl cyclodextrin (HPCD).

FGFR = assay: Kinase inhibition, cell-free enzymatic assay; assay type: biochemical; settings: 1 mM ATP
Method: All data reported as IC50 values for kinase inhibition in cell-free enzymatic assays; ND denotes no data. Values determined @ 1 mM ATP.

## Cc1ccc(F)c(NC(=O)Nc2ccc(-c3cccc4[nH]nc(N)c34)cc2)c1 [RTKi, N-[4-(3-amino-1H-indazol-4-yl)phenyl]-N′-(2-fluoro-5-methylphenyl) urea]
[1]; 10% SBCD Phosphate Buffer
  RTKi Solubility: 2526.5 µg/mL
[1]; phosphate buffer (0% SBCD), pH 7.2, aqueous buffer
  solubility: 0.59 µg/mL (≈ 1.57 µM)
[1]; phosphate buffer with 1% SBCD, pH 7.2, aqueous with cosolvent or surfactant or cyclodextrin, 1% SBCD in Phosphate Buffer
  solubility: 188 µg/mL (≈ 501 µM)
[1]; phosphate buffer with 2.5% SBCD, pH 7.2, aqueous with cosolvent or surfactant or cyclodextrin, 2.5% SBCD Phosphate Buffer
  solubility: 641 µg/mL (≈ 1710 µM)
[1]; phosphate buffer with 5% SBCD, pH 7.2, aqueous with cosolvent or surfactant or cyclodextrin, 5% SBCD Phosphate Buffer
  solubility: 1090 µg/mL (≈ 2910 µM)
[1]; phosphate buffer with 10% SBCD, pH 7.2, aqueous with cosolvent or surfactant or cyclodextrin, 10% SBCD Phosphate Buffer
  solubility: 2520 µg/mL (≈ 6710 µM)
[1]; phosphate buffer with 20% SBCD, pH 7.2, aqueous with cosolvent or surfactant or cyclodextrin, 20% SBCD Phosphate Buffer
  solubility: 4120 µg/mL (≈ 11000 µM)
[2]; 10% HPCD Phosphate Buffer
  RTKi Solubility: 1098.8 µg/mL
[2]; 10% HPCD in phosphate buffer
  solubility expressed as percent: about 0.1%
[2]
  solubility enhancement: More than 1800 fold
[2]; listed as active compound
  solubility enhancement: approximately 1800 fold
[2]; phosphate buffer (0% HPCD), pH 7.2, aqueous buffer, pH 7.2
  solubility: 0.59 µg/mL (≈ 1.57 µM)
[2]; phosphate buffer with 1% HPCD, pH 7.2, aqueous with cosolvent or surfactant or cyclodextrin, 1% HPCD in Phosphate Buffer
  solubility: 82.3 µg/mL (≈ 219 µM)
[2]; phosphate buffer with 5% HPCD, pH 7.2, aqueous with cosolvent or surfactant or cyclodextrin, 5% HPCD Phosphate Buffer
  solubility: 527 µg/mL (≈ 1400 µM)
[2]; phosphate buffer with 10% HPCD, pH 7.2, aqueous with cosolvent or surfactant or cyclodextrin, 10% HPCD Phosphate Buffer
  solubility: 1090 µg/mL (≈ 2900 µM)
FGFR
  IC50: > 12.5 µM
